Among the test systems are CAKI-1 renal; CCRF-CEM leukemia; HL-60(TB) leukemia; HOP-62 NSCLC; MOLT-4 leukemia; NCI-H226 lung; RPMI-8226 leukemia; SK-MEL-5 melanoma; T-47D breast; HCC-2998 colon.
What all share (assay): growth of human tumour cells (NCI), 48 h

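A five-concentration, 48-hour dose response in 96-well plates underlies each endpoint, interpolated linearly between surrounding concentrations. TGI denotes the concentration required for complete inhibition of growth.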 Bounds are passed on as bounds.

In the case of `COc1ccc2nc3c([N+](=O)[O-])ccc(NCCN(C)C)c3c(N)c2c1`, the TGI stood at 3.42 µM in the test on CAKI-1 renal; 0.531 µM in the test with CCRF-CEM leukemia; 0.41 µM in the test with HL-60(TB) leukemia; 3.65 µM in the test with HOP-62 NSCLC; 2.46 µM in the test on MOLT-4 leukemia; 4.54 µM in the test with NCI-H226 lung. The TGI with RPMI-8226 leukemia worked out at 0.557 µM; in the test on SK-MEL-5 melanoma it was 3.45 µM; with T-47D breast, 2.91 µM.
`Nn1c(Nc2ccc(S(N)(=O)=O)cc2)nnc(/C=C/c2c(O)ccc3ccccc23)c1=O`: the TGI in the test with CAKI-1 renal was 49.6 µM; in the test with CCRF-CEM leukemia it was 18.8 µM; with HCC-2998 colon it was 51.9 µM; with HL-60(TB) leukemia it was 28.6 µM; in the test on HOP-62 NSCLC, 56.7 µM; in the test with MOLT-4 leukemia it was 0.805 µM. The TGI was determined as 26.7 µM in the test with RPMI-8226 leukemia, 28.7 µM with SK-MEL-5 melanoma and 40.6 µM in the test with T-47D breast.
For `CSc1ncc2c(n1)-c1ccccc1OC2N1CCOCC1` (centres undefined), the TGI was over 100 µM with CAKI-1 renal; over 100 µM in the test on CCRF-CEM leukemia; 83.9 µM in the test with HL-60(TB) leukemia; over 100 µM in the test on MOLT-4 leukemia; over 100 µM with NCI-H226 lung; over 100 µM in the test on RPMI-8226 leukemia. Besides, the TGI in the test on SK-MEL-5 melanoma was over 100 µM; with T-47D breast it was 80.3 µM.
Regarding `Clc1cc(-c2ccccc2)nc(Nc2nc3ccccc3[nH]2)n1`, the TGI in the test with CAKI-1 renal is 3.95 µM; in the test on CCRF-CEM leukemia it was 27.6 µM; in the test on HL-60(TB) leukemia, over 100 µM; with MOLT-4 leukemia it was over 100 µM; in the test on NCI-H226 lung, over 100 µM; with RPMI-8226 leukemia, over 100 µM. Besides, the TGI in the test with SK-MEL-5 melanoma and in the test with T-47D breast was over 100 µM each time.
With `COc1ccc(-n2c(SC(CN3CCOCC3)CN3CCCC3=O)nc3ccccc3c2=O)cc1` (centres undefined), the TGI in the test with CAKI-1 renal, in the test on CCRF-CEM leukemia, in the test with HCC-2998 colon, in the test on HL-60(TB) leukemia, with MOLT-4 leukemia and with NCI-H226 lung was over 100 µM throughout. Further, the TGI in the test on RPMI-8226 leukemia, with SK-MEL-5 melanoma and with T-47D breast was over 100 µM each time.
Turning to `COC(=O)CNC(=O)C(Cc1ccccc1)NC(=O)c1ccc(-c2ccc(Cl)cc2Cl)o1` (centres undefined), the TGI with CAKI-1 renal was 77.6 µM; in the test with CCRF-CEM leukemia, 39.5 µM; with HL-60(TB) leukemia, 41.2 µM; in the test with HOP-62 NSCLC it was 78.8 µM; in the test with MOLT-4 leukemia it was 49.2 µM; in the test on NCI-H226 lung it was over 100 µM. The TGI in the test with RPMI-8226 leukemia was 51.9 µM; in the test on SK-MEL-5 melanoma, over 100 µM; in the test with T-47D breast, over 100 µM.
For the compound `Cc1ncc([N+](=O)[O-])n1CC[N+](C)([O-])CCCCn1ccnc1[N+](=O)[O-]` (centres undefined), the TGI in the test with CAKI-1 renal, in the test with CCRF-CEM leukemia, with HL-60(TB) leukemia, in the test on HOP-62 NSCLC, with MOLT-4 leukemia and in the test on NCI-H226 lung was over 100 µM each time. Further, the TGI in the test on RPMI-8226 leukemia, with SK-MEL-5 melanoma and with T-47D breast was over 100 µM each time.
Regarding `CCOC(=O)c1c(NS(=O)(=O)c2ccc(C)cc2)sc2c1CCCC2`, the TGI in the test with CAKI-1 renal is over 100 µM; in the test on CCRF-CEM leukemia, over 100 µM; with HL-60(TB) leukemia, over 100 µM; in the test on HOP-62 NSCLC, 60.2 µM; in the test on MOLT-4 leukemia, over 100 µM; with NCI-H226 lung it was over 100 µM. Besides, the TGI with RPMI-8226 leukemia is 45.9 µM; in the test with SK-MEL-5 melanoma, over 100 µM; in the test with T-47D breast, over 100 µM.
`COC(=O)Nc1nc2ccc(S(=O)(=O)Nc3ccccn3)cc2[nH]1`: the TGI in the test on CAKI-1 renal is over 100 µM; with CCRF-CEM leukemia, 54.2 µM; with HL-60(TB) leukemia, 34.8 µM; in the test with HOP-62 NSCLC, over 100 µM; in the test on MOLT-4 leukemia, 64 µM; with NCI-H226 lung it was over 100 µM. Besides, the TGI with RPMI-8226 leukemia was 40.6 µM; in the test on SK-MEL-5 melanoma, over 100 µM; with T-47D breast it was over 100 µM.
`CC(=O)O[C@H]1C(=O)[C@@]2(C)[C@H]([C@H](OC(=O)c3ccccc3)[C@]3(O)C[C@H](OC(=O)[C@H](O)[C@@H](NC(=O)c4ccccc4)c4ccc5ccccc5c4)C(C)=C1C3(C)C)[C@]1(OC(C)=O)CO[C@@H]1C[C@@H]2O`: the TGI in the test on CAKI-1 renal was over 41 µM; in the test with CCRF-CEM leukemia, over 11.2 µM; in the test on HCC-2998 colon it was 0.228 µM; in the test with HL-60(TB) leukemia, 0.0327 µM; with HOP-62 NSCLC, 0.362 µM; in the test with MOLT-4 leukemia, 1.09 µM. Besides, the figures for the TGI with RPMI-8226 leukemia, in the test on SK-MEL-5 melanoma and in the test on T-47D breast were 1.87 µM, 12.9 µM and over 50 µM, respectively.
With `Cc1ccc(S(=O)(=O)N2CCC[C@@H]2C(=O)O[C@@H]2CCC3CC=CC32)cc1` (some centres undefined), the TGI was over 100 µM in the test on CCRF-CEM leukemia; over 100 µM in the test with HCC-2998 colon; 64.2 µM in the test with HL-60(TB) leukemia; 97.2 µM in the test on HOP-62 NSCLC; over 100 µM with MOLT-4 leukemia; 68.3 µM with NCI-H226 lung. For the same compound, the results for the TGI in the test on RPMI-8226 leukemia, with SK-MEL-5 melanoma and in the test on T-47D breast were 61.3 µM, 29.2 µM and over 100 µM, respectively.
On to `O=C1c2cc(I)ccc2N2CCN=C2N1Cc1ccccc1`, for which the TGI in the test on CAKI-1 renal, in the test on CCRF-CEM leukemia, with HL-60(TB) leukemia, with HOP-62 NSCLC, with MOLT-4 leukemia and in the test with NCI-H226 lung was over 100 µM each time. In addition, the TGI in the test on RPMI-8226 leukemia, in the test on SK-MEL-5 melanoma and in the test with T-47D breast was over 100 µM throughout.
For `O=C1/C(=C/c2ccc(Cl)cc2)Oc2cc(O)ccc21`, the TGI with CCRF-CEM leukemia is 52 µM; with HCC-2998 colon, over 100 µM; in the test on HL-60(TB) leukemia, 34.9 µM; in the test on HOP-62 NSCLC it was over 100 µM; in the test on MOLT-4 leukemia it was 48.1 µM; in the test on NCI-H226 lung, 62.3 µM. The TGI is over 100 µM in the test on RPMI-8226 leukemia, 51.5 µM in the test on SK-MEL-5 melanoma and over 100 µM in the test on T-47D breast.
Regarding `Cc1cc2nc3c(C#N)c4c(c(Nc5ccc(F)cc5)n3c2cc1C)CCC4`, the TGI with CAKI-1 renal, with CCRF-CEM leukemia, in the test with HL-60(TB) leukemia, in the test on HOP-62 NSCLC, in the test with MOLT-4 leukemia and in the test with NCI-H226 lung was over 100 µM in each case. The TGI with RPMI-8226 leukemia, in the test with SK-MEL-5 melanoma and in the test on T-47D breast was over 100 µM each time.

For the origin of these results see PubChem BioAssay (NCI).
